{
  "source": "patent US20010009995A1",
  "about": "“Oxybutynin therapy” (priority 1998, published 2001)",
  "conditions": "human, in vivo",
  "data": [
    {"compound": "CCNCC#CCOC(=O)C(O)(c1ccccc1)C1CCCCC1", "note": "(stereo not shown) [DESOXY, desethyloxybutynin]", "values": [
      {"measurement": "t1/2 life of DESOXY compared to OXY", "value": "shorter"}
    ]}
  ]
}
